According to patent US7662782B2, “Melanocortin 1 receptor selective compounds” (Action Pharma A/S, priority 1998, dated 2010):
Values belong to the compound of their own block, whether it stands above or below them. Square brackets hold non-standard residues; d marks the D form. Ends that are not written are not given here. Peptide text beside a SMILES is read from it.

Experiments:
[1] = target: T1, human MC3-receptor (Homo sapiens, UniProt P41968); experiment: Competition for [125I]NDP-MSH binding to recombinant human MC3-receptor in COS cells; details: for Ki: [125I]NDP-MSH competition, transfected COS cells
T1 construct: expressed in transfected cells; host or cells: COS (COS-1) cells, transient, 48 h
T1 sequence (P41968 whole entry): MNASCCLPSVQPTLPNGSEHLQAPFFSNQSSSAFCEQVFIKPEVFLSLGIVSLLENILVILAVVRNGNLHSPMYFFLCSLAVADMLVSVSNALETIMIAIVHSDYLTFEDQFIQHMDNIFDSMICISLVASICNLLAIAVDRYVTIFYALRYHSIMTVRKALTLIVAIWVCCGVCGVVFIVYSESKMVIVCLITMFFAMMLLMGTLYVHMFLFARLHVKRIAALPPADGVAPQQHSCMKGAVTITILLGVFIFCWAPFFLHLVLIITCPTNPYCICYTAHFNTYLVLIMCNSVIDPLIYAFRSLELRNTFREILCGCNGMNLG
Procedure: (§1) Expression of receptor clones. Human MC1- and MC5-receptor DNAs (Chhajlani and Wikberg 1992; Chhajlani et al., 1993), cloned into the expression vector pRc/CMV (InVitrogen Corp., USA), and human MC3- and human MC4-receptor DNAs (Gantz et al., 1993a & b), cloned into the expression vector pCMV/neo, were used. COS cells were grown and transfected with receptor clones as described (Schiöbth et al. 1995, 1996b). After transfection cells were cultivated for 48 h, detached from the Petri dishes, and used for radioligand binding as described (Schiöth et al. 1995, 1996b).
(§2) Binding studies. […] The competition data were analyzed by fitting it to the logistic function using non-linear regression analysis. The Ki-values were then calculated from the thus obtained IC50-values by using the Cheng and Prusoff equation, essentially as described by Schiöth et al. 1995, 1996b.

[2] = target: T2, human MC4-receptor (Homo sapiens, UniProt P32245); experiment: Competition for [125I]NDP-MSH binding to recombinant human MC4-receptor in COS cells; details: for Ki: [125I]NDP-MSH competition, transfected COS cells
T2 construct: expressed in transfected cells; host or cells: COS (COS-1) cells, transient, 48 h
T2 sequence (P32245 whole entry): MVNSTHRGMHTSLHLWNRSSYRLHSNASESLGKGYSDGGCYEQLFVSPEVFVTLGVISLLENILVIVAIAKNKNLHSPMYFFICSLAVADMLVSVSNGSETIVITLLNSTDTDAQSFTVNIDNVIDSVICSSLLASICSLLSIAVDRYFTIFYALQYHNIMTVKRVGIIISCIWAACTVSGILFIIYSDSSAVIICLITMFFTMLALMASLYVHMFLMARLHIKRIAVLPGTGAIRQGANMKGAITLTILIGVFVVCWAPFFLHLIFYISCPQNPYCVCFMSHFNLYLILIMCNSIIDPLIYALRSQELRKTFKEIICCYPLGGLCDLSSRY
Procedure: as §1, §2

[3] = target: T3, human MC5-receptor (Homo sapiens, UniProt P33032); experiment: Competition for [125I]NDP-MSH binding to recombinant human MC5-receptor in COS cells; details: for Ki: [125I]NDP-MSH competition, transfected COS cells
T3 construct: expressed in transfected cells; host or cells: COS (COS-1) cells, transient, 48 h
T3 sequence (P33032 whole entry): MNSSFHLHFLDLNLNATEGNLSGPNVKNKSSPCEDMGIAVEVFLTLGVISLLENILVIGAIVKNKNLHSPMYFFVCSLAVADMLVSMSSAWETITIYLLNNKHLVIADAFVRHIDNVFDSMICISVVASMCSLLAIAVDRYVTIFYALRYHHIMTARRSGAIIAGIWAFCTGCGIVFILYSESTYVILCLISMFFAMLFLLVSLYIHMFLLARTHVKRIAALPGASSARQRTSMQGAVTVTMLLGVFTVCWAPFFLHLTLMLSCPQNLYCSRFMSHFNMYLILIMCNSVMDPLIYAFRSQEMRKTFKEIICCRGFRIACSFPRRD
Procedure: as §1, §2

[4] = target: T4, human MC1-receptor (Homo sapiens, UniProt Q01726); experiment: Stimulation of cAMP formation in B16G4F cells stably expressing human MC1-receptors; format: cell-based; design: expressed in transfected cells; details: for Fold stimulation of cAMP: vs untreated control cells, mean ± SD of 3 experiments
T4 sequence (Q01726 whole entry): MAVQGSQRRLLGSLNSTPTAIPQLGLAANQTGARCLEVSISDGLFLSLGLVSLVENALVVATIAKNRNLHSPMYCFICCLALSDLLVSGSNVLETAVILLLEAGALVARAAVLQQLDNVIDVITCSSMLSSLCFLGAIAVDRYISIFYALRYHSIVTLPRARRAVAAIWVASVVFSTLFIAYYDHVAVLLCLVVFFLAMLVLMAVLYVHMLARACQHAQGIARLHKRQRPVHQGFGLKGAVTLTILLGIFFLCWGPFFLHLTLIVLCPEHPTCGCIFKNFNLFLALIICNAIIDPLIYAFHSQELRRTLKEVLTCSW
Procedure: Human MC1-receptors had been cloned earlier into pZeoSV (Invitrogen) (Szardenings et al., 1997). The resulting vectors were used for transformation of the amelanotic mouse melanoma cell line B16G4F that lacks the mouse MC1-receptors (Solca et al., 1993) using liposomes (Campbell, 1995) as described previously (Schiöth et al., 1997b). Cells were cultivated in Dulbecco's modified Eagle's medium with 10% fetal calf serum at 7% CO2 for 24 hours and seeded on large plates in the same medium containing 300 μg/ml Zeocin. The medium was exchanged every 4-5 days until cell foci appeared. Single foci were isolated and grown under antibiotic selection.
For cAMP measurements the cells were detached from 60-80% confluent adherent cultures using Hank's balanced salts containing 0.5 mM EDTA and incubated for 30-60 min at 37° C. in ordinary growth medium containing 0.5 mM of the phosphodiesterase inhibitor 3-isobutyl-1-methyl-xanthine (IBMX). 20 μl aliquots of appropriate dilutions of test compounds in growth medium were prepared in 96 well microtitre plates and placed in a water bath at 37° C. For the stimulation about 1.5×10^5 cells in 180 μl were quickly added to each well to obtain immediate mixing. After 20 min 20 μl of 4.4 M perchloric acid were added, mixed, neutralized after a few minutes by addition of 20 μl base (5 M KOH, 1 M Tris) and centrifuged.
20 μl of acid treated supernatant obtained above were mixed with 50 μl buffer (100 mM Tris-Cl, 250 mM NaCl, 10 mM EDTA, 0.1% mercaptoethanol, 0.5 mM IBMX, pH=7.4) containing 0.01 μCi [^3H]cAMP (Amersham, 1.04 TBq/mmol, 1 μCi/μl, product no.: TRK304). 200 μl of the same buffer containing a 1:16 diluted porcine adrenal gland bark extract (prepared as described by Nordstedt and Fredholm, 1990) were added and the microtitre plates were incubated for at least 2 hours at 4° C. A standard curve was prepared in the same manner with dilutions of cAMP covering the range 2 μM -0.5 nM.
After completion of incubation the solutions were filtered over GF-B glassfibre filters (Whatman) and washed briefly with ca. 2 ml ice-cold washing buffer (50 mM Tris-Cl, pH=7.4). Radioactivity on the filters was measured after-addition of scintillation liquid. Stimulation experiments were determined in quadruplicates and standard curves in duplicates.

[5] = target: T4, human MC1-receptor; experiment: Competition for [125I]NDP-MSH binding to recombinant human MC1-receptor in COS cells; design: expressed in transfected cells; host or cells: COS (COS-1) cells, transient, 48 h; details: [125I]NDP-MSH competition, transfected COS cells
Procedure: as §1, §2

[6] = test system: mouse B16 melanoma cells; experiment: Stimulation of cAMP-formation in mouse B16 melanoma cells; format: cell-based; details: FIG. 3; both peptides at similar potencies and efficacies
Procedure: B16 mouse melanoma cells (B16-F1; CRL-6323, American Type Culture Collection, 12301 Parklawn Drive, Rockville, Md., 20852), were cultured in Dulbecco's modified Eagle medium (DMEM; Gibco BRA Gaithersburg, USA, cat no. 041-01966H) supplemented with 10% heat-inactivated fetal bovine serum, 100 IU penicillin/mL and 100 μg streptomycin/mL at 37° C. in a humidified atmosphere of 95% air and 5% CO2. Cells grown in monolayers were detached from 60-80% confluent adherent cultures using Hank's balanced salts containing 0.5 mM EDTA and collected by low speed centrifugation (700×g).
The cells were incubated for 30 min at 37° C. in DMEM containing 0.5 mM of the phosphodiesterase inhibitor 3-isobutyl-1-methyl-xanthine (IBMX). 20 μL aliquots of appropriate dilutions of test compounds in growth medium were prepared in 96 well microtitre plates The plates were then placed in a water bath at 37° C. and about 1.5×10^5 cells in 180 μL were quickly added to each well to obtain immediate mixing. […]
After completion of the incubations the solutions were rapidly filtered onto GF-B glassfibre filters (Whatman), followed by rapid washing of filters with 2 ml ice-cold washing buffer (50 mM Tris-Cl, pH 7.4). […] Radioactivity was counted using a β-counter. Cell experiments were determined in quadruplicates and standard curves in duplicates.

[7] = test system: mouse RAW 264.7 macrophage cells; experiment: Stimulation of cAMP-formation in mouse RAW 264.7 macrophage cells; format: cell-based; details: FIG. 5; both peptides at similar potencies and efficacies
Procedure: RAW 264.7 cells were grown as described in Example 6. cAMP was determined essentially as described in Example 5.

[8] = test system: mouse RAW 264.7 macrophage cells; experiment: Inhibition of nitric oxide production in LPS/interferon gamma stimulated RAW 264.7 cells; format: cell-based; details: FIG. 6; 100 ng/mL LPS + 5 units/mL interferon gamma, 16 h; potencies and efficacies similar to α-MSH
Procedure: RAW 264.7 cells (TIB-71), obtained from American Type Culture Collection, 12301 Parklawn Drive, Rockville, Md., 20852, USA, and cultured in Dulbecco's modified Eagle medium (Gibco, BRL) supplemented with 10% heat-inactivated fetal bovine serum, 100 IU penicillin/ml and 100 μg streptomycin/ml at 37° C. in a humidified atmosphere of 95% air and 5% CO2. Cells grown in monolayers were detached from the culture flasks and collected by low speed centrifugation (700×g). […]
Nitric oxide was measured by monitoring the nitrite production essentially using the method of Wishnok et al. (Methods in Enzymology, 1996, 268, 130-151). In brief 50 μL of culture medium was mixed with 50 μL Griess reagent (i.e. a 1:1 mixture of 0.1% N-naphthylethylenediamine dihydrochloride and 1% sulfanilamide in 5% (v/v) phosphoric acid) and after 10 min the absorption was measured at 540 nm. The nitrite concentrations were calculated from a standard curve constructed, by instead of culture medium, adding 50 μL of between 3 to 100 μM of NaNO2 to the assays.

[9] = test system: BALB/C mice; experiment: DNFB contact hypersensitivity in BALB/C mice (paw oedema, blood cell counts); format: in vivo, mouse; details: for inhibition of paw oedema: daily, vs DNFB animals not given MS05
Procedure: Marked positive treatment effects were found upon administration of MS05 to BALB/C mice. Animals were sensitized by injection of 2,4-dinitrofluorobenzene (DNFB). First 30 μL of 0.5% DNFB was administered to the shaved abdomen of the mice and after 4 days 10 μL of 0.3% DNFB was challenged to one paw, another paw being unchallenged and serving as a control. MS05 was administered, using a solution of MS05 in 0.9% saline, intraperitonally two hours before sensitization, and then the same dose was given intra-peritonally for four consecutive days, each dose of MS05 amounting to 0.05, 0.25, 0.37, 0.5 and 0.75 mg/kg. […] Therefore the compound of the invention is in a further sense immunomodulatory.

[10] = test system: human microvascular endothelial cells (HMEC-1 cells); experiment: TNF α induced adhesion molecule expression in HMEC-1 cells; format: cell-based; details: TNF α 10 ng/mL
Procedure: In further tests the MS05 or MS09 was administered to human microvascular endothelial cells (HMEC-1 cells; Department of Health & Human Services, Centres for Disease Control and Prevention, Atlanta, Ga. 30333, USA) in vitro. […] In this context by ICAM-1 is intended intercellular adhesion molecule type 1, by VCAM is intended vascular adhesion molecule, and by E-Selectin is intended endothelial selectin (Sluiter et al, J. Cardiovasc. Pharmacol. 1993, 22 Suppl 4: S37-44, Elangbam et al., Vet. Pathol. 1997 Jan. 34(1): 61-73).

[11] = intraperitoneal, best effect at 0.5 mg/kg daily

Ki [1]: 7 nM
Ki [2]: 40 nM
Ki [3]: 120 nM
% of 10 nM α-MSH (cAMP stimulation) ([4]; 10 nM compound): 89%
Ki [5]: 0.2 nM
Compound: CC[C@H](C)[C@H](NC(=O)[C@H](CO)NC(=O)[C@@H](N)CO)C(=O)N[C@H](C(=O)N[C@@H](CO)C(=O)N[C@@H](Cc1c[nH]cn1)C(=O)N[C@H](Cc1ccccc1)C(=O)N[C@@H](CCCNC(=N)N)C(=O)N[C@@H](Cc1c[nH]c2ccccc12)C(=O)NCC(=O)N[C@@H](CCCCN)C(=O)N1CCC[C@H]1C(=O)N[C@H](C(N)=O)C(C)C)[C@@H](C)CC [MS09, Ser-Ser-Ile-Ile-Ser-His-dPhe-Arg-Trp-Gly-Lys-Pro-Val-NH2] (H-SSIISH[dF]RWGKPV-NH2)

Ki [1]: 1360 nM
fold lower affinity for the MC3 receptor than for the MC1-receptor ([1]; ratio of Ki values): 1800 fold
Ki [2]: > 50000 nM
fold lower affinity for the MC4 receptor than for the MC1-receptor ([2]; ratio of Ki values): more than 65000 fold
Ki [3]: > 50000 nM
fold lower affinity for the MC5 receptor than for the MC1-receptor ([3]; ratio of Ki values): more than 65000 fold
% of 10 nM α-MSH (cAMP stimulation) ([4]; 10 nM compound): 69%
Fold stimulation of cAMP ([4]; 10 nM compound): 4.6 ± 0.3 fold
Fold stimulation of cAMP ([4]; 1 μM compound): 6.7 ± 0.3 fold
Ki [5]: 0.76 nM
Compound: SSIISHFRWGKPV-NH2 [MS05, L-seryl-L-seryl-L-Isoleucyl-L-isoleucyl-L-seryl -L-histidyl-L-phenylalanyl-L-arginyl-L-tryptophanyl-glycyl-L-lysyl-L-prolyl-L-valinamide]
effect on cAMP levels in mouse B16 melanoma cells [6]: marked increase in cAMP
effect on cAMP levels in mouse RAW 264.7 cells [7]: marked increase in cAMP
inhibition of NO-production [8]: strong dose dependent inhibition
inhibition of paw oedema ([9]; 0.05 mg/kg intraperitoneal): 3%
inhibition of paw oedema ([9]; 0.25 mg/kg intraperitoneal): 5%
inhibition of paw oedema ([9]; 0.37 mg/kg intraperitoneal): 12%
inhibition of paw oedema ([9]; 0.5 mg/kg intraperitoneal): 39%
inhibition of paw oedema ([9]; 0.75 mg/kg intraperitoneal): 10%
DNFB induced increase in blood platelet counts ([9]; intraperitoneal): returned towards the normal
DNFB induced increase in count of lymphocytes/monocytes in the blood ([9]; intraperitoneal): essentially returned to normal levels
DNFB induced increase in granulocyte counts of the blood [9, 11]: essentially normalized
DNFB induced increase in total white cell blood counts [9, 11]: essentially normalized
TNF α upregulated expression of mRNA for ICAM-1, VCAM and E-Selectin [10]: inhibition of the upregulated expression of mRNA
TNF α upregulation of the ICAM-1, VCAM and E-Selectin proteins [10]: inhibition of the upregulation
